From US20260184663A1, “INDENE COMPOUNDS, PHARMACEUTICAL COMPOSITIONS THEREOF, AND THEIR THERAPEUTIC APPLICATIONS” (NucMito Pharmaceuticals co. Ltd., priority 2022, published 2026) come the findings set out here.

Where two headings read alike, the source gives them in different places.

Holding throughout (type): cell-based
In assay [1] the test system is MDA-MB-231 (breast cancer). Briefly: Antiproliferative activity (CCK-8 cell viability), MDA-MB-231. The note with it: Homo sapiens, 72 h; for inhibition at 3.3 µM: Compound concentration: 3.3 μM; for inhibition at 10 µM: Compound concentration: 10 μM; for inhibition at 30 µM: Compound concentration: 30 μM. In outline: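 Growth inhibition of human MDA-MB-231 breast cancer cells was assessed with a Cell Counting Kit-8. Cells cultured in DMEM plus 10% FBS were seeded at 2,000-5,000 cells/well, treated after attachment, and kept 72 h at 37° C. CCK-8 solution (10 μL) was added for 4 h, and absorbance at 450 nm was compared with DMSO-treated controls.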

The subject of assay [2] is HepG2 (liver cancer). Briefly: Antiproliferative activity (CCK-8 cell viability), HepG2. The note with it: Homo sapiens, 72 h, read-out: Antiproliferative activity in cancerous cells, HepG2 (inhibition of cell growth); for inhibition at 3.3 µM: Compound concentration: 3.3 μM; for inhibition at 10 µM: Compound concentration: 10 μM. The essentials:
(§1)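 Growth inhibition graded in bands from percent viability against DMSO vehicle, read as CCK-8 absorbance at 450 nm. Compound tested at 3.3, 10 or 30 μM for 72 h, 37 °C; media contained 10% FBS: DMEM for HepG2/SW480, MEM for HeLa, F-12K for A549.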

Assay [3] relates to SW480 (colon cancer). Briefly: Antiproliferative activity (CCK-8 cell viability), SW480. As to conditions: Homo sapiens, 72 h; for inhibition at 3.3 µM: Compound concentration: 3.3 μM; for inhibition at 10 µM: Compound concentration: 10 μM; for inhibition at 30 µM: Compound concentration: 30 μM. In outline: as §1
The subject of assay [4] is B16F10 (malignant melanoma). Briefly: Antiproliferative activity (CCK-8 cell viability), B16F10. The note with it: Mus musculus, 72 h, read-out: Antiproliferative activity in cancerous cells, B16F10 (inhibition of cell growth); for inhibition at 3.3 µM: B16-F10, Compound concentration: 3.3 μM; for inhibition at 10 µM: B16-F10, Compound concentration: 10 μM. In outline:
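Cell growth inhibition was measured in B16F10 malignant melanoma cells with a Cell Counting Kit-8 viability assay. Cells were maintained in DMEM plus 10% fetal bovine serum, seeded at 2,000-5,000 cells/well in 96-well plates, and treated for 72 h at 37° C. Viability was expressed relative to DMSO-treated vehicle control wells.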

Assay [5] deals with A431 (epidermoid carcinoma). Briefly: Antiproliferative activity (CCK-8 cell viability), A431. The note with it: Homo sapiens, 72 h, read-out: Antiproliferative activity in cancerous cells, A431 (inhibition of cell growth); for inhibition at 3.3 µM: A-431, Compound concentration: 3.3 μM; for inhibition at 10 µM: A-431, Compound concentration: 10 μM. In outline:
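This growth inhibition assay used A431 cells maintained in Dulbecco's modified Eagle's medium plus 10% fetal bovine serum. Cells were seeded in 96-well plates, treated with compound for 72 h at 37° C., and then given 10 μL CCK-8 solution. After a further 4 h, absorbance was read at 450 nm.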

The test system of assay [6] is A549 (lung adenocarcinoma). Briefly: Antiproliferative activity (CCK-8 cell viability), A549. The note with it: Homo sapiens, 72 h, read-out: Antiproliferative activity in cancerous cells, A549 (inhibition of cell growth); for inhibition at 3.3 µM: Compound concentration: 3.3 μM; for inhibition at 10 µM: Compound concentration: 10 μM. In outline:
as §1

For assay [7], the system named is HeLa (cervical cancer). Briefly: Antiproliferative activity (CCK-8 cell viability), HeLa. As to conditions: Homo sapiens, 72 h, read-out: Antiproliferative activity in cancerous cells, HELA (inhibition of cell growth); for inhibition at 3.3 µM: Compound concentration: 3.3 μM; for inhibition at 10 µM: Compound concentration: 10 μM. The essentials:
as §1

Setting [8] is: read-out: Antiproliferative activity in cancerous cells, MDA-MB-231 (inhibition of cell growth).
The mark [9] stands for this setting: read-out: Antiproliferative activity in cancerous cells, SW480 (inhibition of cell growth).

Turning to `CC1=C(CC(=O)O)c2cc(C)ccc2/C1=C\c1ccc(CCCc2ccc(Cl)cc2)cc1` [B123, (Z)-2-(1-(4-(3-(4-Chlorophenyl)propyl)benzylidene)-2,5-dimethyl-1H-inden-3-yl)acetic acid], the inhibition at 3.3 µM in assay [1] (setting [8]) is below 30%; in assay [2], 30 to 50%; in assay [3] (setting [9]) it was 30 to 50%; in assay [4], at least 50%; in assay [5] it was at least 50%; in assay [6] it was at least 50%. For the same molecule, the inhibition at 3.3 µM in assay [7] was below 30%. Also, the inhibition at 10 µM in assay [1] (setting [8]), in assay [2], in assay [3] (setting [9]), in assay [4], in assay [5] and in assay [6] was at least 50% throughout. In addition, the inhibition at 10 µM in assay [7] was at least 50%.

As for `CC1=C(CC(=O)O)c2cc(Cl)ccc2/C1=C\c1ccc(CCc2ccccc2)cc1` [B158, (Z)-2-(5-Chloro-2-methyl-1-(4-phenethylbenzylidene)-1H-inden-3-yl)acetic acid], the inhibition at 3.3 µM was below 30% in assay [1] (setting [8]); below 30% in assay [2]; below 30% in assay [3] (setting [9]); 30 to 50% in assay [4]; below 30% in assay [5]; below 30% in assay [6]. The inhibition at 3.3 µM in assay [7] is below 30%. The inhibition at 10 µM in assay [1] (setting [8]) was below 30%; in assay [2], at least 50%; in assay [3] (setting [9]), below 30%; in assay [4], at least 50%; in assay [5], below 30%; in assay [6], below 30%. Further, the inhibition at 10 µM in assay [7] was at least 50%. Besides, the inhibition at 30 µM in assay [1] (read-out: Antiproliferative activity in cancerous cells, MDA-MB-231) lay in the range of 30 to 50%; in assay [3] (read-out: Antiproliferative activity in cancerous cells, SW480) it was 30 to 50%.

`COc1ccc(S(=O)(=O)Cc2ccc(/C=C3/C(C)=C(CC(=O)O)c4cc(F)ccc43)cc2)cc1` [B46, (Z)-2-(5-Fluoro-1-(4-(((4-methoxyphenyl)sulfonyl)methyl)benzylidene)-2-methyl-1H-inden-3-yl)acetic acid]: the inhibition at 3.3 µM in assay [1] (setting [8]) was below 30%; in assay [2], 30 to 50%; in assay [3] (setting [9]) it was 30 to 50%; in assay [4], below 30%; in assay [5], 30 to 50%; in assay [6], below 30%. Besides, in assay [7], the inhibition at 3.3 µM is below 30%. The inhibition at 10 µM was 30 to 50% in assay [1] (setting [8]); 30 to 50% in assay [2]; 30 to 50% in assay [3] (setting [9]); at least 50% in assay [4]; at least 50% in assay [5]; below 30% in assay [6]. Besides, the inhibition at 10 µM in assay [7] is at least 50%.

As to `CC1=C(CC(=O)O)c2cc(Br)ccc2/C1=C/c1ccc(Oc2ccc(F)cc2)cc1` [E32, (E)-2-(5-Bromo-1-(4-(4-fluorophenoxy)benzylidene)-2-methyl-1H-inden-3-yl)acetic acid], the inhibition at 3.3 µM in assay [1] (setting [8]) was at least 50%; in assay [2] it was below 30%; in assay [3] (setting [9]) it was 30 to 50%; in assay [4] it was at least 50%; in assay [5] it was at least 50%; in assay [6], 30 to 50%. Also, in assay [7], the inhibition at 3.3 µM was at least 50%. Further, the inhibition at 10 µM in assay [1] (setting [8]), in assay [2], in assay [3] (setting [9]), in assay [4], in assay [5] and in assay [6] was at least 50% each time. Besides, in assay [7], the inhibition at 10 µM is at least 50%. The inhibition at 30 µM in assay [1] (setting [8]) is at least 50%; in assay [2] (Compound concentration: 30 μM), at least 50%; in assay [3] (setting [9]), at least 50%; in assay [4] (B16-F10, Compound concentration: 30 μM), at least 50%; in assay [5] (A-431, Compound concentration: 30 μM), at least 50%; in assay [6] (Compound concentration: 30 μM), at least 50%. In addition, the inhibition at 30 µM in assay [7] (Compound concentration: 30 μM) is at least 50%.

With `CCc1ccc2c(c1)C(CC(=O)O)=C(C)/C2=C/c1ccc(COc2ccc(Cl)cc2)cc1` [B56, (Z)-2-(1-(4-((4-Chlorophenoxy)methyl)benzylidene)-5-ethyl-2-methyl-1H-inden-3-yl)acetic acid], the inhibition at 3.3 µM in assay [1] (setting [8]) was below 30%; in assay [2], at least 50%; in assay [3] (setting [9]), 30 to 50%; in assay [4], 30 to 50%; in assay [5] it was at least 50%; in assay [6], 30 to 50%. Also, the inhibition at 3.3 µM in assay [7] was at least 50%. Further, the inhibition at 10 µM in assay [1] (setting [8]) is 30 to 50%; in assay [2] it was at least 50%; in assay [3] (setting [9]), at least 50%; in assay [4] it was at least 50%; in assay [5], at least 50%; in assay [6], at least 50%. In addition, the inhibition at 10 µM in assay [7] was at least 50%.

With `CC1=C(CC(=O)O)c2cc(F)ccc2/C1=C\c1ccc(CSc2nc3ccccc3[nH]2)cc1` [B44, (Z)-2-(1-(4-(((1H-Benzo[d]imidazol-2-yl)thio)methyl)benzylidene)-5-fluoro-2-methyl-1H-inden-3-yl)acetic acid], the inhibition at 3.3 µM in assay [1] (setting [8]) is at least 50%; in assay [2] it was at least 50%; in assay [3] (setting [9]), 30 to 50%; in assay [4] it was at least 50%; in assay [5], below 30%; in assay [6], below 30%. For the same molecule, the inhibition at 3.3 µM in assay [7] was at least 50%. Also, the inhibition at 10 µM in assay [1] (setting [8]), in assay [2], in assay [3] (setting [9]), in assay [4], in assay [5] and in assay [6] was at least 50% throughout. Further, in assay [7], the inhibition at 10 µM is at least 50%.

In the case of `CC1=C(CC(=O)O)c2cc(F)ccc2/C1=C\c1ccc(COCc2ccccc2)cc1` [B104, (Z)-2-(1-(4-((Benzyloxy)methyl)benzylidene)-5-fluoro-2-methyl-1H-inden-3-yl)-acetic acid], the inhibition at 3.3 µM is 30 to 50% in assay [1] (setting [8]); below 30% in assay [2]; at least 50% in assay [3] (setting [9]); at least 50% in assay [4]; at least 50% in assay [5]; 30 to 50% in assay [6]. For the same molecule, in assay [7], the inhibition at 3.3 µM is at least 50%. Moreover, the inhibition at 10 µM in assay [1] (setting [8]) was at least 50%; in assay [2], at least 50%; in assay [3] (setting [9]) it was at least 50%; in assay [4] it was at least 50%; in assay [5], at least 50%; in assay [6], 30 to 50%. Further, the inhibition at 10 µM in assay [7] is at least 50%.
